Residues, ends and D or L forms follow the SMILES beside them.
Target: T1, TSH receptor on human thyroid membranes (Homo sapiens, UniProt P16473)
T1 construct: Thyroid tissue obtained at surgery from patients with Graves' disease was prepared as described by Takahashi et al; from tissue; host or cells: human thyroid tissue from Graves' disease patients, 2000xg membrane fraction
Experiment: TSH radioreceptor assay: inhibition of 125I-bTSH binding to human thyroid membrane preparations
Experimental: Thyroid tissue obtained at surgery from patients with Graves' disease was prepared as described by Takahashi et al., J. Clin. Endocrinol. Metab. 47:870 (1978), the disclosure of which is incorporated herein. Briefly, the tissue was dissected free of fibrous material, minced with scissors, and homogenized with Polytron homogenizer. The 2000×g fraction was collected by centrifugation, washed and resuspended in 40 mM Tris, 0.1% Bovine Serum Albumin (BSA) pH 7.4 at a concentration of 100 mg equivalents of wet tissue per milliliter. The preparation was stored at -70° C. until used for assay.
Highly purified bovine TSH (30 IU/mg, supplied by Dr. J. G. Pierce, UCLA) was radio-iodinated (Na^125 I, Amersham, Chicago) by a gentle lactoperoxidase procedure described by Takahashi et al., supra, then purified by Sephadex G-100 chromatography.
The membrane assay incubation mixture consisted of […] of the 2000×g membrane fraction, 0.125 ng ^125 I bTSH (approximately 20,000 cpm, 5×10^-12 M), 100 ul of 1% Triton X-100 and noted amounts of test materials in a final volume of 0.5 ml of 40 mM Tris-HCl pH 7.4 plus 0.1% BSA. Nonspecific binding was determined by addition of excess unlabeled bTSH (200 mU/ml, Sigma, St. Louis). After 2 hrs incubation at 25° C., 200 ul of 5 mg/ml bovine gamma globulin and 1 ml 30% polyethylene glycol 6000 (Baker, Phillipsburg, N.J.) in 1M NaCl was added to each tube and the tubes centrifuged at 4000 rpm for 25 minutes. The supernatants were aspirated and pellets counted in a gamma counter. Specific binding averaged 25% of total counts.
FIG. 1 reports 5×10^-12 M labeled bTSH incubated with 10 mg equivalents (wet weight) of 2000×g fraction of thyroid membranes with varying concentrations of unlabeled TSH or synthetic α-subunit peptides. Nonspecific binding was determined in the presence of excess unlabeled TSH.

T1 sequence (P16473 21-764): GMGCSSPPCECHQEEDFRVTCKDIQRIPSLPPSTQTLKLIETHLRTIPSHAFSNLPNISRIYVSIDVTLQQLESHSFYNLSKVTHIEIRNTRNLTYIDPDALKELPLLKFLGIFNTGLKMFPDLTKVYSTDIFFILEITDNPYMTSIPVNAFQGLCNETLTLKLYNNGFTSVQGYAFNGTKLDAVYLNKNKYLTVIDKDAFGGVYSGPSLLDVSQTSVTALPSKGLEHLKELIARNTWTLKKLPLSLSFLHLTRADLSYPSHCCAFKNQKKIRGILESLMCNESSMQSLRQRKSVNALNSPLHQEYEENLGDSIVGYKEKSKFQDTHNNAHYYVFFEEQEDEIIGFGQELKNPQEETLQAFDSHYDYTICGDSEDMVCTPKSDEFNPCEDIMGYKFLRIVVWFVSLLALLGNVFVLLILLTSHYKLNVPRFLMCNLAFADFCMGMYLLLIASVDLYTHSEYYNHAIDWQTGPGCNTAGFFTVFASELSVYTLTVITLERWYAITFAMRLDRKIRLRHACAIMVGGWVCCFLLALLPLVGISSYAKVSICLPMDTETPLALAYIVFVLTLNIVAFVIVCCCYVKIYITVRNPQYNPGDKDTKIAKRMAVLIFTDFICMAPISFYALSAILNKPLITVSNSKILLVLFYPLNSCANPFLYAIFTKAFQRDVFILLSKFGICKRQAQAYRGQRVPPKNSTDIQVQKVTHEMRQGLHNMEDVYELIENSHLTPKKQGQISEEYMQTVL

CSCC[C@H](NC(=O)[C@H](CS)NC(=O)[C@H](CCC(N)=O)NC(=O)[C@@H](N)CC(C)C)C(=O)NCC(=O)N[C@@H](CS)C(=O)N[C@@H](CS)C(=O)N[C@@H](Cc1ccccc1)C(=O)N[C@@H](CO)C(=O)N[C@@H](CCCNC(=N)N)C(=O)N[C@@H](C)C(=O)N[C@@H](Cc1ccc(O)cc1)C(=O)N1CCC[C@H]1C(=O)N[C@H](C(=O)N1CCC[C@H]1C(=O)N[C@@H](CC(C)C)C(=O)N[C@@H](CCCNC(=N)N)C(=O)N[C@@H](CO)C(=O)N[C@@H](CCCCN)C(=O)N[C@@H](CCCCN)C(=O)N[C@H](C(N)=O)[C@@H](C)O)[C@@H](C)O [α26-46, Leu--Gln--Cys--Met--Gly--Cys--Cys--Phe--Ser--Arg--Ala--Tyr--Pro--Thr--Pro--Leu--Arg--Ser--Lys--Lys--Thr--(NH2)] (H-LQCMGCCFSRAYPTPLRSKKT-NH2)
displacement of 125I-bTSH label (at concentrations greater than 1×10^-5 m, FIG. 1): more than 80%
IC50 (human thyroid membrane homogenates, ± S.E., read-out: bTSH ED50 (effective dose necessary to inhibit binding of 125I-bTSH by 50%)): 10.8 ± 0.3 µM
inhibition of 125I-bTSH binding, result in words (human thyroid membranes, FIG. 1): dose dependent inhibition

Reference: patent US4973578A, “Synthetic peptides derived from the alpha-subunit of human lycoprotein hormones” (Mayo Foundation for Medical Education and Research, priority 1988, dated 1990)
